Reference: US4927922A, “7β-(substituted)amino-3-substituted cephalosporanic acids and esters” (American Cyanamid Company, priority 1988, dated 1990)
≈ marks a conversion by molar mass, not a printed value. Where two headings read alike, the source gives them in different places. One block for each compound: values may come before it.

Experiments:
Test in all cases: in vitro agar dilution test (MIC)
Type in all cases: cell-based
[1] = system: Morganella morganii CMC 84-37; settings: CMC8437
Experimental: (§1) The compounds of the present invention are active antibacterial agents as established in the in vitro agar dilution test using Mueller-Hinton agar. The test compounds were dissolved in a mixture of dimethyl sulfoxide and aqueous sodium bicarbonate and applied as 1 ml of drug solution plus 9 ml of agar per plate. The innoculum was a 5 hour TSB shake culture diluted to 10^-2 with Mueller-Hinton broth and applied to the plates with a Steers' Replicator.
(§2) The results of this test on representative compounds of this invention (identified by Example Number) against a variety of microorganisms appear in Tables I and II in terms of minimal inhibitory concentration (MIC) in mcg/ml together with Cefotaxime, Cephalothin and Ampicillin as positive controls.

[2] = system: Enterobacter cloacae VGH 84-37; settings: VGH8437
Experimental: as §1, §2

[3] = system: Klebsiella oxytoca MOR 84-28; settings: MOR8428
Experimental: as §1, §2

[4] = system: Proteus rettgheri CMC 84-41
Experimental: as §1, §2

[5] = system: Escherichia coli CMC 84-16; settings: CMC8416
Experimental: as §1, §2

[6] = system: Staphylococcus aureus CMC 83-132; settings: CMC83132
Experimental: as §1, §2

[7] = system: Klebsiella pneumoniae AD (MP)
Experimental: as §1, §2

[8] = system: Staphylococcus epidermidis CMC 83-135; settings: CMC83135
Experimental: as §1, §2

[9] = system: Klebsiella pneumoniae MOR 84-4; settings: MOR844
Experimental: as §1, §2

Enterococcus VGH 84-65 = settings: VGH8465
Experimental: as §1, §2

[10] = system: Staphylococcus saprophyticus VGH 84-50; settings: VGH8450
Experimental: as §1, §2

[11] = system: Pseudomonas aeruginosa VGH 84-4; settings: VGH844
Experimental: as §1, §2

[12] = system: Serratia marcesans K 84-18; settings: K8418
Experimental: as §1, §2

[13] = system: Enterobacter cloacae K 84-10; settings: K8410
Experimental: as §1, §2

[14] = system: Staphylococcus aureus ATCC 25923; settings: ATCC25923
Experimental: as §1, §2

[15] = system: Escherichia coli No. 311 N.A.; settings: Mueller-Hinton agar
Experimental: as §1, §2

[16] = system: Morganella morganii VGH 84-11; settings: VGH8411
Experimental: as §1, §2

[17] = system: Staphylococcus aureus Smith (MP)
Experimental: as §1, §2

[18] = system: Escherichia coli CMC 84-11; settings: CMC8411, Mueller-Hinton agar
Experimental: as §1, §2

[19] = system: Serratia marcesans F 35 (MP)
Experimental: as §1, §2

[20] = system: Escherichia coli ATCC 25922; settings: ATCC25922, Mueller-Hinton agar, Table II
Experimental: as §1, §2

[21] = system: Escherichia coli No. 311(Parent); settings: Mueller-Hinton agar
Experimental: as §1, §2

[22] = system: Staphylococcus aureus CMC 83-131; settings: CMC83131
Experimental: as §1, §2

[23] = system: Enterobacter aerogenes VGH 84-36; settings: Klebsiella aerogenes, VGH8436
Experimental: as §1, §2

[24] = system: Staphylococcus epidermidis IO 83-58; settings: IO8358
Experimental: as §1, §2

[25] = system: Staphylococcus aureus CMC 83-128; settings: CMC83128
Experimental: as §1, §2

[26] = system: Acinetobacter calcoaceticus MOR 84-43; settings: MOR8443
Experimental: as §1, §2

[27] = system: Pseudomonas aeruginosa 12-4-4 (MP)
Experimental: as §1, §2

[28] = Klebsiella oxytoca MOR 84-28, Mueller-Hinton agar, read-out: MIC
[29] = Proteus rettgheri CMC 84-41, Mueller-Hinton agar, read-out: MIC
[30] = Staphylococcus aureus CMC 83-132, Mueller-Hinton agar, read-out: MIC
[31] = Klebsiella pneumoniae AD (MP), Mueller-Hinton agar, Table II, read-out: MIC
[32] = Staphylococcus epidermidis CMC 83-135, Mueller-Hinton agar, read-out: MIC
[33] = Klebsiella pneumoniae MOR 84-4, Mueller-Hinton agar, read-out: MIC
[34] = Enterococcus VGH 84-65, Mueller-Hinton agar, read-out: MIC
[35] = Staphylococcus saprophyticus VGH 84-50, Mueller-Hinton agar, read-out: MIC
[36] = Serratia marcesans K 84-18, Mueller-Hinton agar, read-out: MIC
[37] = Staphylococcus aureus ATCC 25923, Mueller-Hinton agar, Table II, read-out: MIC
[38] = Staphylococcus aureus Smith (MP), Mueller-Hinton agar, Table II, read-out: MIC
[39] = Staphylococcus aureus CMC 83-131, Mueller-Hinton agar, read-out: MIC
[40] = Staphylococcus epidermidis IO 83-58, Mueller-Hinton agar, read-out: MIC
[41] = Staphylococcus aureus CMC 83-128, Mueller-Hinton agar, read-out: MIC
[42] = Acinetobacter calcoaceticus MOR 84-43, Mueller-Hinton agar, read-out: MIC
[43] = Escherichia coli CMC 84-16, Mueller-Hinton agar, read-out: MIC
[44] = Morganella morganii CMC 84-37, Mueller-Hinton agar, read-out: MIC
[45] = Enterobacter cloacae VGH 84-37, Mueller-Hinton agar, read-out: MIC
[46] = Pseudomonas aeruginosa VGH 84-4, Mueller-Hinton agar, read-out: MIC
[47] = Enterobacter cloacae K 84-10, Mueller-Hinton agar, read-out: MIC
[48] = Morganella morganii VGH 84-11, Mueller-Hinton agar, read-out: MIC
[49] = Serratia marcesans F 35 (MP), Mueller-Hinton agar, read-out: MIC
[50] = Enterobacter aerogenes VGH 84-36, Mueller-Hinton agar, read-out: MIC
[51] = Pseudomonas aeruginosa 12-4-4 (MP), Mueller-Hinton agar, Table II, read-out: MIC

SMILES: CC1(C)S[C@@H]2[C@H](NC(=O)[C@H](N)c3ccccc3)C(=O)N2[C@H]1C(=O)O [Ampicillin, reference compound]
- MIC ([1]; Morganella morganii): 256 µg/mL (≈ 733 µM)
- MIC ([2]; Enterobacter cloacae): > 256 µg/mL
- MIC [3, 28]: 32 µg/mL (≈ 91.6 µM)
- MIC [4, 29]: 0.5 µg/mL (≈ 1.43 µM)
- MIC ([5]; Escherichia coli): > 256 µg/mL
- MIC [6, 30]: 1 µg/mL (≈ 2.86 µM)
- MIC [7, 31]: 0.25 µg/mL (≈ 0.715 µM)
- MIC [8, 32]: ≤ 0.12 µg/mL
- MIC [9, 33]: 32 µg/mL (≈ 91.6 µM)
- MIC (Enterococcus VGH 84-65; [34]): 1 µg/mL (≈ 2.86 µM)
- MIC [10, 35]: ≤ 0.12 µg/mL
- MIC ([11]; Pseudomonas aeruginosa): > 256 µg/mL
- MIC [12, 36]: 64 µg/mL (≈ 183 µM)
- MIC ([13]; Enterobacter cloacae): > 256 µg/mL
- MIC [14, 37]: ≤ 0.12 µg/mL
- MIC [15]: 2 µg/mL (≈ 5.72 µM)
- MIC ([16]; Morganella morganii): > 256 µg/mL
- MIC [17, 38]: ≤ 0.12 µg/mL
- MIC [18]: 4 µg/mL (≈ 11.4 µM)
- MIC ([19]; Serratia): > 256 µg/mL
- MIC [20]: 4 µg/mL (≈ 11.4 µM)
- MIC [21]: 2 µg/mL (≈ 5.72 µM)
- MIC [22, 39]: 2 µg/mL (≈ 5.72 µM)
- MIC [23]: 256 µg/mL (≈ 733 µM)
- MIC [24, 40]: 16 µg/mL (≈ 45.8 µM)
- MIC [25, 41]: ≤ 0.12 µg/mL
- MIC [26, 42]: 32 µg/mL (≈ 91.6 µM)
- MIC ([27]; Pseudomonas aeruginosa): > 256 µg/mL

SMILES: CC(=O)OCC1=C(C(=O)O)N2C(=O)[C@@H](NC(=O)Cc3cccs3)[C@H]2SC1 [Cephalothin, reference compound]
- MIC ([1]; Morganella morganii): > 256 µg/mL
- MIC ([2]; Enterobacter cloacae): > 256 µg/mL
- MIC ([3]; Klebsiella oxytoca): > 256 µg/mL
- MIC [4]: 4 µg/mL (≈ 10.1 µM)
- MIC [5, 43]: 16 µg/mL (≈ 40.4 µM)
- MIC ([6]; Staphylococcus aureus): 32 µg/mL (≈ 80.7 µM)
- MIC ([7]; Klebsiella pneumoniae): 1 µg/mL (≈ 2.52 µM)
- MIC ([8]; Staphylococcus epidermidis): ≤ 0.12 µg/mL
- MIC ([9]; Klebsiella pneumoniae): 2 µg/mL (≈ 5.04 µM)
- MIC (Enterococcus VGH 84-65; Enterococcus): 32 µg/mL (≈ 80.7 µM)
- MIC ([10]; Staphylococcus saprophyticus): 0.25 µg/mL (≈ 0.631 µM)
- MIC ([11]; Pseudomonas aeruginosa): > 256 µg/mL
- MIC ([12]; Serratia): > 256 µg/mL
- MIC ([13]; Enterobacter cloacae): > 256 µg/mL
- MIC ([14]; Staphylococcus aureus): 0.25 µg/mL (≈ 0.631 µM)
- MIC [15]: 8 µg/mL (≈ 20.2 µM)
- MIC ([16]; Morganella morganii): > 256 µg/mL
- MIC ([17]; Staphylococcus aureus): ≤ 0.12 µg/mL
- MIC [18]: 8 µg/mL (≈ 20.2 µM)
- MIC ([19]; Serratia): > 256 µg/mL
- MIC [20]: 16 µg/mL (≈ 40.4 µM)
- MIC [21]: 8 µg/mL (≈ 20.2 µM)
- MIC ([22]; Staphylococcus aureus): 32 µg/mL (≈ 80.7 µM)
- MIC [23]: > 256 µg/mL
- MIC ([24]; Staphylococcus epidermidis): 0.25 µg/mL (≈ 0.631 µM)
- MIC ([25]; Staphylococcus aureus): ≤ 0.12 µg/mL
- MIC ([26]; Acinetobacter calcoaceticus): > 256 µg/mL
- MIC ([27]; Pseudomonas aeruginosa): > 256 µg/mL

- MIC [1, 44]: > 256 µg/mL
- MIC [2, 45]: > 256 µg/mL
- MIC [3, 28]: 256 µg/mL (≈ 546 µM)
- MIC [4, 29]: 2 µg/mL (≈ 4.27 µM)
- MIC [5, 43]: 64 µg/mL (≈ 137 µM)
- MIC [6, 30]: 32 µg/mL (≈ 68.3 µM)
- MIC [7, 31]: 8 µg/mL (≈ 17.1 µM)
- MIC [8, 32]: ≤ 0.12 µg/mL
- MIC [9, 33]: 32 µg/mL (≈ 68.3 µM)
- MIC (Enterococcus VGH 84-65; [34]): 32 µg/mL (≈ 68.3 µM)
- MIC [10, 35]: 1 µg/mL (≈ 2.13 µM)
- MIC [11, 46]: > 256 µg/mL
- MIC [12, 36]: > 256 µg/mL
- MIC [13, 47]: > 256 µg/mL
- MIC [14, 37]: 0.5 µg/mL (≈ 1.07 µM)
- MIC [15]: 32 µg/mL (≈ 68.3 µM)
- MIC [16, 48]: > 256 µg/mL
- MIC [17, 38]: ≤ 0.12 µg/mL
- MIC [18]: 64 µg/mL (≈ 137 µM)
- MIC [19, 49]: > 256 µg/mL
- MIC [20]: 64 µg/mL (≈ 137 µM)
- MIC [21]: 32 µg/mL (≈ 68.3 µM)
- MIC [22, 39]: 32 µg/mL (≈ 68.3 µM)
- MIC [23, 50]: 256 µg/mL (≈ 546 µM)
- MIC [24, 40]: 2 µg/mL (≈ 4.27 µM)
- MIC [25, 41]: 1 µg/mL (≈ 2.13 µM)
- MIC [26, 42]: > 256 µg/mL
- MIC [27, 51]: > 256 µg/mL
SMILES: Cc1snnc1SCC1=C(C(=O)O)N2C(=O)[C@@H](NC(=O)Cc3cccs3)[C@H]2SC1 [Example 8, (6R-trans)-3-[[(5-Methyl-1,2,3-thiadiazol-4-yl)thio]methyl]-8-oxo-7-[(2-thienylacetyl)amino]-5-thia-1-azabicyclo[4.2.0]oct-2-ene-2-carboxylic acid]

- MIC [1, 44]: > 256 µg/mL
- MIC [2, 45]: > 256 µg/mL
- MIC [3, 28]: 128 µg/mL (≈ 265 µM)
- MIC [4, 29]: 4 µg/mL (≈ 8.29 µM)
- MIC [5, 43]: 128 µg/mL (≈ 265 µM)
- MIC [6, 30]: 32 µg/mL (≈ 66.3 µM)
- MIC [7, 31]: 16 µg/mL (≈ 33.2 µM)
- MIC [8, 32]: ≤ 0.12 µg/mL
- MIC [9, 33]: 64 µg/mL (≈ 133 µM)
- MIC (Enterococcus VGH 84-65; [34]): 32 µg/mL (≈ 66.3 µM)
- MIC [10, 35]: 1 µg/mL (≈ 2.07 µM)
- MIC [11, 46]: > 256 µg/mL
- MIC [12, 36]: > 256 µg/mL
- MIC [13, 47]: > 256 µg/mL
- MIC [14, 37]: 0.5 µg/mL (≈ 1.04 µM)
- MIC [15]: 64 µg/mL (≈ 133 µM)
- MIC [16, 48]: > 256 µg/mL
- MIC [17, 38]: ≤ 0.12 µg/mL
- MIC [18]: 128 µg/mL (≈ 265 µM)
- MIC [19, 49]: > 256 µg/mL
- MIC [20]: 64 µg/mL (≈ 133 µM)
- MIC [21]: 64 µg/mL (≈ 133 µM)
- MIC [22, 39]: 32 µg/mL (≈ 66.3 µM)
- MIC [23, 50]: > 256 µg/mL
- MIC [24, 40]: 2 µg/mL (≈ 4.14 µM)
- MIC [25, 41]: 1 µg/mL (≈ 2.07 µM)
- MIC [26, 42]: > 256 µg/mL
- MIC [27, 51]: > 256 µg/mL
SMILES: CCc1snnc1SCC1=C(C(=O)O)N2C(=O)[C@@H](NC(=O)Cc3cccs3)[C@H]2SC1 [Example 10, (6R-trans)-3-[[(5-Ethyl-1,2,3-thiadiazol-4-yl)thio]methyl]-8-oxo-7-[(2-thienylacetyl)amino]-5-thia-1-azabicyclo[4.2.0]oct-2-ene-2-carboxylic acid]
